# Literature values in PMC6680430, “Quantitative Prediction of Human Pharmacokinetics and Pharmacodynamics of CKD519, a Potent Inhibitor of Cholesteryl Ester Transfer Protein (CETP)” (Pharmaceutics, 2019).
# System: CETP
# Details: cited from earlier work
smiles,measurement,setting,value
COc1cc(F)c(C(C)C)cc1-c1ccc(C(F)(F)F)cc1CN1C(=O)O[C@H](c2cc(C(F)(F)F)cc(C(F)(F)F)c2)[C@@H]1C [anacetrapib],"peak effect, inhibition of CETP",exposure-response from literature,~ 90%
same,IC50,"known in vivo value for the comparator, read-out: in vivo IC50 (plasma concentration for half of maximum CETP inhibition)",22 nM
